Experimental findings from ChEMBL document CHEMBL4184137, “Lysine Deacetylase Inhibitors in Parasites: Past, Present, and Future Perspectives” (J Med Chem, 2017) are described below.

*1 amine or outer side, *2 acyl side, *3 side chain or, on linkers, in order; H or OH if unused. Where a SMILES comes first, the peptide text is derived from it. Bridges are numbered along the chain shown (N, C = ends). [ ]: non-standard residue; d: D form. X1 = CC(C)CCCCCCCCC[C@H](CC(=O)[*:1])O[*:2]

The target in series [1] is T1, NAD-dependent protein deacetylase sirtuin-1 (Homo sapiens, UniProt Q96EB6).
T1 sequence (Q96EB6 whole entry): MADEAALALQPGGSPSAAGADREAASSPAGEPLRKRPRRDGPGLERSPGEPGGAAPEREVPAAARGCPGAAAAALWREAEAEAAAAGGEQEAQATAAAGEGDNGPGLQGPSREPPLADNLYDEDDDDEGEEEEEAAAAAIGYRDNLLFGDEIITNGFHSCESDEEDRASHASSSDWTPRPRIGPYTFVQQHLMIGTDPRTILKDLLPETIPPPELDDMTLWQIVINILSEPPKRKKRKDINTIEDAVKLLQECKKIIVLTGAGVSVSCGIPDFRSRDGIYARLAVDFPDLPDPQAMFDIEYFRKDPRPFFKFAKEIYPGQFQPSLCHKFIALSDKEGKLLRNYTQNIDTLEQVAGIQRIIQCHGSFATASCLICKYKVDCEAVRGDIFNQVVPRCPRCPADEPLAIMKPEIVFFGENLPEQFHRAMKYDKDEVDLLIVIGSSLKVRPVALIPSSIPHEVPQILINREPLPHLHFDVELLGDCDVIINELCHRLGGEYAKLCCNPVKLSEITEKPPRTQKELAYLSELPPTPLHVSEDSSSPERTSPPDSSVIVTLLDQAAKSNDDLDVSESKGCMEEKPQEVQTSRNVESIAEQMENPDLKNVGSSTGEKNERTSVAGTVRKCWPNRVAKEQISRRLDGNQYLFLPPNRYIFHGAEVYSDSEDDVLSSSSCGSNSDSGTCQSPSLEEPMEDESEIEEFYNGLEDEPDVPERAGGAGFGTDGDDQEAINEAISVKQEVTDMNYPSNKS
In words: Inhibition of human SIRT1 in presence of NAD+ by fluorimetric method.

A short description of series [2]: Selectivity index, ratio of IC50 for N-terminal His6-tagged recombinant Leishmania infantum SIR2RP1 expressed in Escherichia coli to IC50 for human SIRT1.
Series [3] concerns Leishmania infantum. Nature of the series: Antileishmanial activity against amastigote stage of Leishmania infantum MHOM/MA671TMAP263 expressing luciferase after 72 hrs by luciferase assay. The format is functional, organism-based. Conditions: MHOM/MA671TMAP263, 72 h.
Series [4] has as its system Schistosoma mansoni. Nature of the series: Antiparasitic activity against Schistosoma mansoni assessed cell viability at 20 uM after 4 days. The format is functional.
In series [5] the test system is Schistosoma mansoni. In words: Antiparasitic activity against Schistosoma mansoni assessed as cumulative egg reduction at 20 uM. Format: functional. Details: scale not given: the % may be the effect or the level left.
The test system of another series is Trypanosoma cruzi. Nature of the series: Antitrypanosomal activity against epimastigotes of Trypanosoma cruzi […] by Alamar Blue assay. Format: functional, organism-based. On the technique in general: The colour change of resazurin is a common sign of viable cells or microbes.
Series [6] in a line: Inhibition of recombinant Trypanosoma cruzi Sir2rp3.
Series [7] has as its system Schistosoma mansoni. Nature of the series: Antiparasitic activity against Schistosoma mansoni assessed as pairing at 20 uM after 5 days relative to control. Format: functional.
Series [8] is described as follows: Inhibition of Plasmodium falciparum Sir2A.
The test system of series [9] is Plasmodium falciparum. In words: Antiplasmodial activity against Plasmodium falciparum 3D7 assessed as growth inhibition after 24 hrs by measuring incorporation of [3H]-hypoxanthine by liquid scintillation counting method. Format: functional, organism-based.
Series [10] has as its system Schistosoma mansoni. In words: Antiparasitic activity against Schistosoma mansoni assessed cell viability at 20 uM after 5 days. The format is functional.
Series [11] deals with Leishmania infantum. Nature of the series: Antiproliferative activity against amastigote stage of Leishmania infantum measured for 1 min and 45 secs by propidium iodide staining-based flow cytometry. Format: functional, organism-based. (A flow cytometer gives signals particle by particle.)
Series [12] relates to Leishmania infantum. In words: Antiproliferative activity against promastigote stage of Leishmania infantum measured for 1 min and 45 secs by propidium iodide staining-based flow cytometry. Format: functional, organism-based.
Series [13] relates to Schistosoma mansoni. In words: Antiparasitic activity against Schistosoma mansoni assessed as pairing at 20 uM after 6 days relative to control. The format is functional.
Series [14] concerns the target T1, NAD-dependent protein deacetylase sirtuin-1. In words: Inhibition of human SIRT1.
Series [15] concerns Plasmodium falciparum. In words: Antimalarial activity against Plasmodium falciparum using Malstat reagent by parasite lactate dehydrogenase assay. The format is functional, organism-based.
The target in the next series is T2, Histone deacetylase (Plasmodium falciparum, UniProt Q9XYC7).
T2 sequence (Q9XYC7 whole entry): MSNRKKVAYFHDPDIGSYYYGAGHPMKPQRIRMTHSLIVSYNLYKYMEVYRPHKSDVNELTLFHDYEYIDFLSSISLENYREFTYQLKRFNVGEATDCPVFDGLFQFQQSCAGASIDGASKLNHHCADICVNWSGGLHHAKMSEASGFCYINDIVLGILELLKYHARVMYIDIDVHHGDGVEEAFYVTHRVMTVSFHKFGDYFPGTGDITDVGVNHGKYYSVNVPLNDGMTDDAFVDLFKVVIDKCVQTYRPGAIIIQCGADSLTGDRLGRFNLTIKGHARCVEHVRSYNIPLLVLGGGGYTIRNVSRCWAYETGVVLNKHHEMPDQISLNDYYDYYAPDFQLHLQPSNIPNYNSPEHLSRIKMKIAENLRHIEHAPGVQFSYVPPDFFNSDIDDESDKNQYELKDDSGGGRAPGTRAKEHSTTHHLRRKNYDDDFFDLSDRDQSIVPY
Nature of the series: Inhibition of recombinant Plasmodium falciparum HDAC1 using HDAC substrate-3 after 30 mins by fluorescence assay.

Series [16] concerns Leishmania donovani. Nature of the series: Antilieshmanial activity against promastigote stage of Leishmania donovani by fluorimetric assay. The format is functional, organism-based.
Series [17] deals with Leishmania donovani. Nature of the series: Antilieshmanial activity against amastigote stage of Leishmania donovani by fluorimetric assay. Format: functional, organism-based.
Series [18] in a line: Selectivity index, ratio of IC50 for African green monkey Vero cells to IC50 for Plasmodium falciparum D6. To be noted: read-out: Ratio IC50. The format is toxicity.
The nature of series [19]: Selectivity index, ratio of IC50 for African green monkey Vero cells to IC50 for Plasmodium falciparum W2. Format: toxicity. Conditions: read-out: Ratio IC50.

Turning to `O=C1c2cccc3cccc(c23)C(=O)N1CCCNCCCCCCCCCNCCCN1C(=O)c2cccc3cccc(c23)C1=O`, the results for the IC50 (in series [1]; in the series on Leishmania infantum [3]) were 97.4 µM and 6.03 µM, respectively. The Ratio IC50 in series [2] was found to be 17.
Consider `CC(C(=O)Nc1cccc(/N=C/c2c(O)ccc3ccccc23)c1)c1ccccc1` (stereo not given) [SALERMIDE], for which the values for the Activity in the series on Schistosoma mansoni [4], with Schistosoma mansoni [5] and in the series with Schistosoma mansoni [7] were 100%, 95% and 100%, respectively. This compound also returned an EC50 in the series with Trypanosoma cruzi of 10.6 µM. Moreover, the IC50 in series [6] stood at 1 µM.
Regarding `CC(NC(=O)c1ccccc1/N=C/c1c(O)ccc2ccccc12)c1ccccc1` (stereo not given) [SIRTINOL], the IC50 in [8] is greater than 50 µM; with Plasmodium falciparum [9] it was 9 to 13 µM; with Leishmania infantum [11], 30 µM; in the series on Leishmania infantum [12], greater than 60 µM; with Leishmania infantum [3], 30 µM. Moreover, the values for the Activity in the series on Schistosoma mansoni [5], in the series with Schistosoma mansoni [10] and in the series with Schistosoma mansoni [13] were 42%, 100% and 75%, respectively.
In the case of `CC(C)CCCCCCCCC[C@@H]1CC(=O)N[C@@H](CCC(=O)O)C(=O)N[C@@H](CC(C)C)C(=O)N[C@H](CC(C)C)C(=O)N[C@@H](C(C)C)C(=O)N[C@@H](CC(=O)O)C(=O)N[C@H](CC(C)C)C(=O)N[C@@H](CC(C)C)C(=O)O1` [SURFACTIN] (EL[dL]VD[dL]L; linker N-C via X1), the half-inhibitory concentration (IC50) in [8] is 35 µM; in series [14], greater than 600 µM; in the series on Plasmodium falciparum [9], 9 µM.
On to `CC[C@H]1OC(=O)[C@H](C)[C@@H](O[C@H]2C[C@@](C)(OC)[C@@H](O)[C@H](C)O2)[C@H](C)[C@@H](O[C@@H]2O[C@H](C)C[C@H](N(C)Cc3ccc(-c4cn(CCCCCCCCCC(=O)NO)nn4)cc3)[C@H]2O)[C@](C)(O)C[C@@H](C)C(=O)[C@H](C)[C@@H](O)[C@]1(C)O`, for which the IC50 was 0.76 to 1.32 µM in the series on Plasmodium falciparum [15], 0.401 µM at Histone deacetylase, 3.2 µM in the series with Leishmania donovani [16] and 4.7 µM with Leishmania donovani [17]. Besides, the selectivity ratio is greater than 3.4 in series [18] and greater than 6 in series [19].

One may read the IC50 as the point on the concentration scale where inhibition reaches its midpoint. One may read the EC50 as the midpoint of the concentration-response curve.
